Experimental findings from ChEMBL document CHEMBL5113480, “Discovery of novel biphenyl-substituted pyridone derivatives as potent non-nucleoside reverse transcriptase inhibitors with promising oral bioavailability” (Eur J Med Chem, 2022) are described below.

In data set [1] the test system is Human immunodeficiency virus 1. Kind of data set: Antiviral activity against HIV-1 IIIB infected in human MT4 cells assessed as reduction in viral replication by MTT assay. It counts as functional, organism-based. The conditions noted are these: Human immunodeficiency virus 1, IIIB. Background: Tetrazolium assays rely on reduction of a dye to a coloured formazan, in cell work by metabolically active cells.

In data set [2] the test system is Human immunodeficiency virus 1. As to the kind of experiment: Antiviral activity against HIV-1 Y181C mutant infected in human MT4 cells assessed as reduction in viral replication by MTT assay. Type of data set: functional, organism-based. The conditions noted are these: Human immunodeficiency virus 1, Y181C mutant.
The target in data set [3] is Human immunodeficiency virus type 1 reverse transcriptase (Human immunodeficiency virus 1, UniProt Q72547). As to the kind of experiment: Inhibition of wild type HIV-1 Reverse transcriptase.
Data set [4] has as its system Human immunodeficiency virus 1. Kind of data set: Antiviral activity against HIV-1 L100I mutant infected in human MT4 cells assessed as reduction in viral replication by MTT assay. Type of data set: functional, organism-based. The conditions noted are these: Human immunodeficiency virus 1, L100I mutant.
Data set [5] concerns Human immunodeficiency virus 1. As to the kind of experiment: Antiviral activity against HIV-1 F227L-V106A mutant infected in human MT4 cells assessed as reduction in viral replication by MTT assay. Type of data set: functional, organism-based. The note with it: Human immunodeficiency virus 1, F227L-V106A mutant.
The nature of data set [6]: Cytotoxicity against human MT4 cells assessed as reduction on cell growth by MTT assay. It counts as toxicity, cell-based.
Data set [7] deals with Human immunodeficiency virus 1. As to the kind of experiment: Antiviral activity against HIV-1 K103N mutant infected in human MT4 cells assessed as reduction in viral replication by MTT assay. The conditions noted are these: Human immunodeficiency virus 1, K103N mutant. It counts as functional, organism-based.
The test system of data set [8] is Human immunodeficiency virus 1. Kind of data set: Antiviral activity against HIV-1 E138K mutant infected in human MT4 cells assessed as reduction in viral replication by MTT assay. Type of data set: functional, organism-based. The note with it: Human immunodeficiency virus 1, E138K mutant.
The subject of data set [9] is Human immunodeficiency virus 1. Kind of data set: Antiviral activity against HIV-1 K103N-Y181C mutant infected in human MT4 cells assessed as reduction in viral replication by MTT assay. Type of data set: functional, organism-based. The conditions noted are these: Human immunodeficiency virus 1, K103N-Y181C mutant.
For data set [10], the system named is Human immunodeficiency virus 1. As to the kind of experiment: Antiviral activity against HIV-1 ROD infected in human MT4 cells assessed as reduction in viral replication by MTT assay. It counts as functional, organism-based.
A short description of data set [11]: Selectivity index, ratio of CC50 for cytotoxicity against human MT4 cells to EC50 of Anti-HIV activity against HIV-1 IIIB infected in human MT4 cells. Type of data set: toxicity, cell-based. The note with it: read-out: Ratio CC50/EC50.
The subject of data set [12] is Human immunodeficiency virus 1. Kind of data set: Antiviral activity against HIV-1 Y188L mutant infected in human MT4 cells assessed as reduction in viral replication by MTT assay. It counts as functional, organism-based. The note with it: Human immunodeficiency virus 1, Y188L mutant.
In another data set the target is Cytochrome P450 2D6 (Homo sapiens, UniProt P10635). Kind of data set: Inhibition of CYP2D6 (unknown origin). Type of data set: ADME.
Chain of Cytochrome P450 2D6 (P10635 whole entry): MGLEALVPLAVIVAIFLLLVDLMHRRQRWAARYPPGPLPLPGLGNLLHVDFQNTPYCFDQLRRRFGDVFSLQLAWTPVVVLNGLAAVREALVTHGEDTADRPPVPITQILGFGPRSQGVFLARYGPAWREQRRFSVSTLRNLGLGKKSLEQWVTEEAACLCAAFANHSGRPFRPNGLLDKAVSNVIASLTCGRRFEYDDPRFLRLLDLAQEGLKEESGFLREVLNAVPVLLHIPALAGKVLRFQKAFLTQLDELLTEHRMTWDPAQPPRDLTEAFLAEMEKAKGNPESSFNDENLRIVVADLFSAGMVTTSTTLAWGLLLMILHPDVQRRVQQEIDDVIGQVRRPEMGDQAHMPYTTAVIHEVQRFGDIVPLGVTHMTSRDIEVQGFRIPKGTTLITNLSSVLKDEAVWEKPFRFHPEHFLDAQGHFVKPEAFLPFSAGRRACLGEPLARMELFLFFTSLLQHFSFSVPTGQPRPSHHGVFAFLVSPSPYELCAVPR
Data set [13] addresses Voltage-gated inwardly rectifying potassium channel KCNH2 (Homo sapiens, UniProt Q12809). Kind of data set: Inhibition of human ERG potassium channel expressed in CHO cells by automated patch clamp electrophysiological assay. It counts as toxicity, cell-based.

pEC50, pIC50: −log10 of the molar value.

Chain of Voltage-gated inwardly rectifying potassium channel KCNH2 (Q12809 whole entry): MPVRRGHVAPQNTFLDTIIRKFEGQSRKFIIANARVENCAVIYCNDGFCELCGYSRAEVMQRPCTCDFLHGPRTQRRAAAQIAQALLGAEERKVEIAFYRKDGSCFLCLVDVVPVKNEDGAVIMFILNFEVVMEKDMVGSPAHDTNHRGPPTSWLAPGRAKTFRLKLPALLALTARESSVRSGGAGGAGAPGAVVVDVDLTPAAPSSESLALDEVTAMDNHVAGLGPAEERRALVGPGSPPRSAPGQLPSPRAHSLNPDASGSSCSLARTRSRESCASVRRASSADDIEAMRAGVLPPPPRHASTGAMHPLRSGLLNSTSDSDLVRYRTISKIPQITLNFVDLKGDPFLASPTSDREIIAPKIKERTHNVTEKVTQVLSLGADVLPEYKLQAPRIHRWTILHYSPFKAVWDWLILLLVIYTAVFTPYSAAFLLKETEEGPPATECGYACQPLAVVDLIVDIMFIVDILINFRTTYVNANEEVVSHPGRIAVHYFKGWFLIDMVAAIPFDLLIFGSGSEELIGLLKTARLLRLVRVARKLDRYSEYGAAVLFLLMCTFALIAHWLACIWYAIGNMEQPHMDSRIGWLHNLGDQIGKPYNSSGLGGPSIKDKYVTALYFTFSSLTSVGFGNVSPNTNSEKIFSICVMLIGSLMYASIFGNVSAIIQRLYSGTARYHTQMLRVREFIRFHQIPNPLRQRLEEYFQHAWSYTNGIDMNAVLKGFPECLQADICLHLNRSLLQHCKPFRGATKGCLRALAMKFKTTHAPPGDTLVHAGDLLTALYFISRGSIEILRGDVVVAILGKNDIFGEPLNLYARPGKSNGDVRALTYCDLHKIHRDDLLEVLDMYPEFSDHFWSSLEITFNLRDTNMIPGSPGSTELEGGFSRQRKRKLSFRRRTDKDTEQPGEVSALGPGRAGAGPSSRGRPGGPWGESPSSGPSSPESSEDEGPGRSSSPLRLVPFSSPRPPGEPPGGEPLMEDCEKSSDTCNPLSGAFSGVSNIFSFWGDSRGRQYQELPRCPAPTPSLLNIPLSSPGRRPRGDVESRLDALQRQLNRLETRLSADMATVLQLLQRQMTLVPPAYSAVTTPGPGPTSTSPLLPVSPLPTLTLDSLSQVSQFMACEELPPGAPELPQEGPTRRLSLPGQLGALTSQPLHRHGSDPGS

The pEC50 is −log10 of the EC50, conventionally taken in molar units. The term pIC50 denotes the negative decadic logarithm of the IC50, by convention in mol/L. Lower therefore signals a large IC50. For orientation: CC50 means the concentration giving 50% cytotoxicity. With `Cn1c(Cn2ccc(C(F)(F)F)c(Oc3c(F)cc(-c4ccc(F)c(C#N)c4)cc3F)c2=O)n[nH]c1=O`, the pEC50 is 6.21 in [1]; 5.33 in data set [2]; 5.79 in data set [4]; under 4.46 in [5]; 5.92 in data set [7]; 5.68 in data set [8]. In addition, the pEC50 in [9], in data set [10] and in data set [12] was under 4.46 throughout. The compound also gave a pIC50 in data set [3] of 5.78. Also, the CC50 in data set [6] was 19000 nM. Also, the selectivity ratio in data set [11] worked out at 30.7.

As to `Cn1c(Cn2ccc(C(F)(F)F)c(Oc3cc(C#N)cc(-c4ccc(F)c(C#N)c4)c3)c2=O)n[nH]c1=O`, the pEC50 was 7.37 in data set [1]; 6.35 in data set [2]; 7.05 in data set [4]; under 4.46 in [5]; 7.29 in data set [7]; 7.11 in [8]. The pEC50 in data set [9] was 6.00; in data set [10] it was under 4.46; in [12], 5.82. In data set [3], this compound had a pIC50 of 6.54. In [6], the CC50 was 87900 nM. The selectivity ratio in data set [11] came out at 2060.

Regarding `Cn1c(Cn2ccc(C(F)(F)F)c(Oc3cc(C#N)cc(-c4cc(F)cc(C#N)c4)c3)c2=O)n[nH]c1=O`, the pEC50 in [1] is 7.52; in [2], 6.74; in [4] it was 7.30; in data set [5], under 4.46; in data set [7], 7.59; in data set [8], 7.21. The pEC50 in [9] was 6.38; in data set [10], under 4.46; in data set [12], 6.06. Moreover, in data set [3], the pIC50 was 6.77. The CC50 in [6] amounted to 84400 nM. For the same compound, the selectivity ratio in data set [11] came to 2810.

Regarding `Cn1c(Cn2ccc(C(F)(F)F)c(Oc3cc(C#N)cc(-c4ccc(F)cc4)c3)c2=O)n[nH]c1=O`, the pEC50 in data set [1] is 7.28; in data set [2] it was 6.47; in data set [4], 7.06; in data set [5], under 4.46; in data set [7], 7.38; in [8], 6.92. Also, the pEC50 in data set [9] is 5.84; in data set [10], under 4.46; in data set [12] it was 5.45. This compound also had a negative logarithm of the IC50 (pIC50) in [3] of 6.96. Moreover, the CC50 in data set [6] is over 267000 nM. For the same compound, the selectivity ratio in data set [11] is over 4840.

As to `Cn1c(Cn2ccc(C(F)(F)F)c(Oc3cc(C#N)cc(-c4ccc(C#N)cc4)c3)c2=O)n[nH]c1=O`, the pEC50 in data set [1] is 7.34; in data set [2], 6.35; in data set [4] it was 7.15; in data set [5], under 4.46; in [7], 7.11; in data set [8], 7.09. The figures for the pEC50 in [9], in data set [10] and in data set [12] were 5.70, under 4.46 and 6.21, respectively. For the same compound, the pIC50 in data set [3] is 6.28. Also, the CC50 in data set [6] was 142000 nM. The selectivity ratio in data set [11] came to 3110.

Regarding `Cc1ccc(-c2cc(C#N)cc(Oc3c(C(F)(F)F)ccn(Cc4n[nH]c(=O)n4C)c3=O)c2)cc1`, the pEC50 in data set [1] is 6.64; in [2], 6.68; in data set [4] it was 7.01; in data set [5], under 4.46; in data set [7] it was 6.27; in [8] it was 6.82. Also, the pEC50 in data set [9] was 5.29; in data set [10], under 4.46; in [12], 5.78. The compound also had a pIC50 in data set [3] of 5.82. In addition, the CC50 in data set [6] was over 267000 nM. The selectivity ratio in data set [11] was over 1150.

`Cn1c(Cn2ccc(C(F)(F)F)c(Oc3cc(C#N)cc(-c4cccc(C#N)c4)c3)c2=O)n[nH]c1=O`: the negative logarithm of the EC50 (pEC50) was 7.64 in data set [1]; 6.92 in data set [2]; 7.80 in [4]; under 4.46 in [5]; 7.59 in data set [7]; 7.59 in [8]. Besides, the values for the pEC50 in [9], in data set [10] and in [12] were 6.59, under 4.46 and 6.44, respectively. The compound also had a pIC50 in data set [3] of 6.68. In data set [6], the CC50 is 101000 nM. Also, the selectivity ratio in [11] is 4500.

For `Cn1c(Cn2ccc(C(F)(F)F)c(Oc3c(F)cc(-c4ccc(C#N)cc4)cc3F)c2=O)n[nH]c1=O`, the pEC50 in data set [1] was 6.14; in [2], 5.30; in data set [4] it was 5.77; in data set [5], under 4.46; in [7], 5.94; in data set [8], 5.84. For the same compound, the pEC50 in [9], in [10] and in data set [12] was under 4.46 each time. Further, the pIC50 in [3] is 5.50. Also, the CC50 in [6] was 21200 nM. In addition, in data set [11], the selectivity ratio was found to be 29.5.

Take `Cn1c(Cn2ccc(C(F)(F)F)c(Oc3cc(C#N)cc(-c4cccc(F)c4)c3)c2=O)n[nH]c1=O`: the pEC50 in data set [1] is 7.82; in [2] it was 7.27; in data set [4], 7.68; in data set [5], under 4.46; in data set [7], 7.92; in data set [8], 7.68. Besides, the pEC50 in data set [9] was 6.51; in data set [10], under 4.46; in [12], 6.08. Moreover, the negative-log IC50 (pIC50) in [3] was 7.25. Besides, in [6], the CC50 was found to be 19100 nM. The selectivity ratio in data set [11] was determined as 1270.

For `Cn1c(Cn2ccc(C(F)(F)F)c(Oc3c(F)cc(-c4cc(F)cc(C#N)c4)cc3F)c2=O)n[nH]c1=O`, the pEC50 in data set [1] was 5.79; in data set [2], under 4.46; in data set [4], 5.53; in [5], under 4.46; in [7] it was 5.68; in data set [8] it was 5.28. Further, the negative logarithm of the EC50 (pEC50) in [9], in data set [10] and in data set [12] was under 4.46 in each case. The pIC50 in data set [3] was 5.49. Moreover, the CC50 in data set [6] turned out to be 16600 nM. In [11], the selectivity ratio is 10.2.

Consider `COc1ccc2c(c1)[C@]13CCCC[C@@H]1[C@H](C2)N(C)CC3` [DEXTROMETHORPHAN], for which, on Cytochrome P450 2D6, the pIC50 was 7.37.

Turning to `Cn1c(Cn2ccc(C(F)(F)F)c(Oc3cc(Cl)cc(C#N)c3)c2=O)n[nH]c1=O` [DORAVIRINE], the pEC50 is 7.60 in [2]; 8.18 in data set [4]; 4.76 in [5]; 7.38 in [7]; 8.12 in data set [8]; 6.85 in [9]. Moreover, the pEC50 in data set [10] is under 4.46; in [12] it was 6.30. Besides, the pIC50 in data set [3] is 7.36; in [13], 4.06. The CC50 in [6] amounted to 293000 nM. Further, the selectivity ratio in data set [11] stood at 22600.
